A short description of this data set: Metabolic stability in cryopreserved human hepatocytes. The note with it: human, cryopreserved human hepatocytes (pooled, suspension). Type of data set: in vitro ADME.
Setting [1] is: Figures 3-5, cryopreserved human hepatocytes, read-out: half-life (t1/2).
Setting [2] is: Table S1, PROTACs, cryopreserved human hepatocytes, read-out: t1/2.
The mark [3] stands for this setting: supplement CSV, human hepatocytes, read-out: HLH t1/2.

Read-outs that look alike come from different tables or passages of the source.

Description: Cryopreserved human hepatocytes (pooled suspension hepatocytes, Gibco) were thawed placing in a 37 °C shaking water bath according to the manufacturer’s specifications and resuspended in Williams E medium (WEM) to have 1 × 10^6 cells/mL. Samples with the test compound at 1 μM were incubated at 37 °C, and aliquots of 50 μL were collected at 0, 10, 30, 60, 120, and 240 min. The incubations were quenched 1:3 with ice-cold acetonitrile (containing 1 μM labetalol as the internal standard). Samples were then centrifuged at 12000 rpm for 5 min at 4 °C. The supernatant was concentrated by evaporation under a nitrogen stream and reconstituted with DMSO. Blank was prepared similarly but in the absence of the investigated compounds.
A Thermo Q-exactive mass spectrometer (Thermo Fisher Scientific, Waltham, MA) was used. The LC system, governed by Chromeleon X-press software, consists of a Binary pump, a thermostated autosampler, and a column compartment, all Dionex Ultimate 3000 series modules (Thermo Fisher Scientific, Waltham, MA). A volume of 2 μL was injected for each sample. Chromatographic separation of analytes was conducted in reverse-phase chromatography. In brief, a Luna Omega 1.6 μm Polar (C18, 2.1 mm × 150 mm) was used, and the mobile phases consisted of water (A) and acetonitrile (B), both containing formic acid at 0.1%. The LC flow was set at 0.400 mL/min in a 12 min gradient elution as follows: 99.5:0.5 (A/B) to 5:95 (A/B) over 10 min, 5:95 (A/B) for 2 min, and then reversion back to 99.5:0.5 (A/B) over 2.5 min. The column was operating at a constant temperature of 40 °C.

For `Cc1sc2c(c1C)C(c1ccc(Cl)cc1)=N[C@@H](CC(=O)NCCCCCCCCNC(=O)COc1cccc3c1C(=O)N(C1CCC(=O)NC1=O)C3=O)c1nnc(C)n1-2` (some centres unmarked) [Compound 2, dBet6, reference compound], the half-life at 1 µM under setting [1] was found to be 18.2 min, the half-life at 1 µM under setting [2] stood at 18.2 min and the half-life at 1 µM under setting [3] stood at 18.2 min.

`Cc1sc2c(c1C)C(c1ccc(Cl)cc1)=N[C@@H](CC(=O)Nc1ccc(OCCOCCOCCOCCNc3cccc4c3C(=O)N(C3CCC(=O)NC3=O)C4=O)cc1)c1nnc(C)n1-2` (some centres unmarked) [Compound 3, ARV-825, reference compound]: the half-life at 1 µM under setting [2] turned out to be 27.7 min and the half-life at 1 µM under setting [3] was 27.7 min.

Regarding `Cc1sc2c(c1C)C(c1ccc(Cl)cc1)=N[C@@H](CC(=O)NCCCN1CCN(CCCNc3cccc4c3C(=O)N(C3CCC(=O)NC3=O)C4=O)CC1)c1nnc(C)n1-2` (stereo partly drawn) [Compound 6, 2-((S)-4-(4-Chlorophenyl)-2,3,9-trimethyl-6H-thieno[3,2-f][1,2,4]triazolo[4,3-a][1,4]diazepin-6-yl)-N-(3-(4-(3-((2-(2,6-dioxopiperidin-3-yl)-1,3-dioxoisoindolin-4-yl)amino)propyl)piperazin-1-yl)propyl)acetamide], the half-life at 1 µM reads like this: under setting [1], 87 min; under setting [2], 87 min; under setting [3], 87 min.

With `Cc1ncsc1-c1ccc(CNC(=O)[C@@H]2C[C@@H](O)CN2C(=O)[C@@H](NC(=O)COCCOCCOCCNC(=O)C[C@@H]2N=C(c3ccc(Cl)cc3)c3c(sc(C)c3C)-n3c(C)nnc32)C(C)(C)C)cc1` [Compound 7, MZ1, reference compound], the half-life at 1 µM was determined as 210 min under setting [2] and 210 min under setting [3].

Regarding `Cc1ncsc1-c1ccc([C@H](C)NC(=O)[C@@H]2C[C@@H](O)CN2C(=O)[C@@H](NC(=O)CCCCCCNC(=O)C[C@@H]2N=C(c3ccc(Cl)cc3)c3c(sc(C)c3C)-n3c(C)nnc32)C(C)(C)C)cc1` [Compound 8, (2S,4R)-1-((S)-2-(7-(2-((S)-4-(4-Chlorophenyl)-2,3,9-trimethyl-6H-thieno[3,2-f][1,2,4]triazolo[4,3-a][1,4]diazepin-6-yl)acetamido)heptanamido)-3,3-dimethylbutanoyl)-4-hydroxy-N-((S)-1-(4-(4-methylthiazol-5-yl)phenyl)ethyl)pyrrolidine-2-carboxamide], the half-life at 1 µM was 81.8 min under setting [2] and 81.8 min under setting [3].

Consider `Cc1ncsc1-c1ccc([C@H](C)NC(=O)[C@@H]2C[C@@H](O)CN2C(=O)[C@@H](NC(=O)COCCOCCNC(=O)C[C@@H]2N=C(c3ccc(Cl)cc3)c3c(sc(C)c3C)-n3c(C)nnc32)C(C)(C)C)cc1` [Compound 9, (2S,4R)-1-((S)-2-(tert-Butyl)-14-((S)-4-(4-chlorophenyl)-2,3,9-trimethyl-6H-thieno[3,2-f][1,2,4]triazolo[4,3-a][1,4]diazepin-6-yl)-4,13-dioxo-6,9-dioxa-3,12-diazatetradecanoyl)-4-hydroxy-N-((S)-1-(4-(4-methylthiazol-5-yl)phenyl)ethyl)pyrrolidine-2-carboxamide], for which the half-life at 1 µM under setting [2] is 137 min and the half-life at 1 µM under setting [3] was determined as 137 min.

As to `Cc1ncsc1-c1ccc([C@H](C)NC(=O)[C@@H]2C[C@@H](O)CN2C(=O)[C@@H](NC(=O)COCCCOCCNC(=O)C[C@@H]2N=C(c3ccc(Cl)cc3)c3c(sc(C)c3C)-n3c(C)nnc32)C(C)(C)C)cc1` [Compound 10, ARV-771, reference compound], the half-life at 1 µM by setting is: under setting [2], 151 min; under setting [3], 151 min.

`O=C(COc1cccc2c1C(=O)N(C1CCC(=O)NC1=O)C2=O)NCCCCCCCCNC(=O)c1ccc2c(c1)nc(Nc1cccc(Cl)c1)c1ccncc12` (centres unmarked) [Compound 12, 5-((3-Chlorophenyl)amino)-N-(8-(2-((2-(2,6-dioxopiperidin-3-yl)-1,3-dioxoisoindolin-4-yl)oxy)acetamido)octyl)benzo[c][2,6]naphthyridine-8-carboxamide]: the half-life at 1 µM under setting [2] amounted to 41.4 min and the half-life at 1 µM under setting [3] was determined as 41.4 min.

Turning to `O=C(COc1cccc2c1C(=O)N(C1CCC(=O)NC1=O)C2=O)NCCCCCCCCCCNC(=O)c1ccc2c(c1)nc(Nc1cccc(Cl)c1)c1ccncc12` (centres unmarked) [Compound 13, 5-((3-Chlorophenyl)amino)-N-(10-(2-((2-(2,6-dioxopiperidin-3-yl)-1,3-dioxoisoindolin-4-yl)oxy)acetamido)decyl)benzo[c][2,6]naphthyridine-8-carboxamide], the half-life at 1 µM by setting is: under setting [2], 33.6 min; under setting [3], 33.6 min.

Consider `O=C(COc1cccc2c1C(=O)N(C1CCC(=O)NC1=O)C2=O)NCCOCCOCCOCCNC(=O)c1ccc2c(c1)nc(Nc1cccc(Cl)c1)c1ccncc12` (centres unmarked) [Compound 14, 5-((3-Chlorophenyl)amino)-N-(1-((2-(2,6-dioxopiperidin-3-yl)-1,3-dioxoisoindolin-4-yl)oxy)-2-oxo-6,9,12-trioxa-3-azatetradecan-14-yl)benzo[c][2,6]naphthyridine-8-carboxamide], for which the half-life at 1 µM by setting is: under setting [2], 76.8 min; under setting [3], 76.8 min.

Turning to `O=C1CCC(N2C(=O)c3cccc(NCCCCCCNC(=O)c4ccc5c(c4)nc(Nc4cccc(Cl)c4)c4ccncc45)c3C2=O)C(=O)N1` (centres unmarked) [Compound 16, 5-((3-Chlorophenyl)amino)-N-(6-((2-(2,6-dioxopiperidin-3-yl)-1,3-dioxoisoindolin-4-yl)amino)hexyl)benzo[c][2,6]naphthyridine-8-carboxamide], the half-life at 1 µM worked out at 34.7 min under setting [2] and 34.7 min under setting [3].

Take `Cc1ncsc1-c1ccc([C@H](C)NC(=O)[C@@H]2C[C@@H](O)CN2C(=O)[C@@H](NC(=O)CCCCNC(=O)c2ccc3c(c2)nc(Nc2cccc(Cl)c2)c2ccncc23)C(C)(C)C)cc1` [Compound 17, 5-((3-Chlorophenyl)amino)-N-(5-(((S)-1-((2S,4R)-4-hydroxy-2-(((S)-1-(4-(4-methylthiazol-5-yl)phenyl)ethyl)carbamoyl)pyrrolidin-1-yl)-3,3-dimethyl-1-oxobutan-2-yl)amino)-5-oxopentyl)benzo[c][2,6]naphthyridine-8-carboxamide]: the half-life at 1 µM stood at 204 min under setting [1], 204 min under setting [2] and 204 min under setting [3].

For `Cc1ncsc1-c1ccc([C@H](C)NC(=O)[C@@H]2C[C@@H](O)CN2C(=O)[C@@H](NC(=O)CCCCCCNC(=O)c2ccc3c(c2)nc(Nc2cccc(Cl)c2)c2ccncc23)C(C)(C)C)cc1` [Compound 18, 5-((3-Chlorophenyl)amino)-N-(7-(((S)-1-((2S,4R)-4-hydroxy-2-(((S)-1-(4-(4-methylthiazol-5-yl)phenyl)ethyl)carbamoyl)pyrrolidin-1-yl)-3,3-dimethyl-1-oxobutan-2-yl)amino)-7-oxoheptyl)benzo[c][2,6]naphthyridine-8-carboxamide], the half-life at 1 µM reads like this: under setting [1], 209 min; under setting [2], 209 min; under setting [3], 209 min.

In the case of `Cc1ncsc1-c1ccc([C@H](C)NC(=O)[C@@H]2C[C@@H](O)CN2C(=O)[C@@H](NC(=O)COCCCNC(=O)c2ccc3c(c2)nc(Nc2cccc(Cl)c2)c2ccncc23)C(C)(C)C)cc1` [Compound 19, 5-((3-Chlorophenyl)amino)-N-(3-(2-(((S)-1-((2S,4R)-4-hydroxy-2-(((S)-1-(4-(4-methylthiazol-5-yl)phenyl)ethyl)carbamoyl)pyrrolidin-1-yl)-3,3-dimethyl-1-oxobutan-2-yl)amino)-2-oxoethoxy)propyl)benzo[c][2,6]naphthyridine-8-carboxamide], the half-life at 1 µM runs as follows: under setting [2], 159 min; under setting [3], 159 min.

With `Cc1ncsc1-c1ccc([C@H](C)NC(=O)[C@@H]2C[C@@H](O)CN2C(=O)[C@@H](NC(=O)CN2CCN(C(=O)c3ccc4c(c3)nc(Nc3cccc(Cl)c3)c3ccncc34)CC2)C(C)(C)C)cc1` [Compound 20, (2S,4R)-1-((S)-2-(2-(4-(5-((3-Chlorophenyl)amino)benzo[c][2,6]naphthyridine-8-carbonyl)piperazin-1-yl)acetamido)-3,3-dimethylbutanoyl)-4-hydroxy-N-((S)-1-(4-(4-methylthiazol-5-yl)phenyl)ethyl)pyrrolidine-2-carboxamide], the half-life at 1 µM under setting [1] was 218 min, the half-life at 1 µM under setting [2] is 218 min and the half-life at 1 µM under setting [3] came to 218 min.

`O=C1CCC(N2C(=O)c3cccc(NCCCCCCCCCCC(=O)N4CCN(C(=O)c5cc(Cc6n[nH]c(=O)c7ccccc67)ccc5F)CC4)c3C2=O)C(=O)N1` (centres unmarked) [Compound 21, 2-(2,6-Dioxopiperidin-3-yl)-4-((11-(4-(2-fluoro-5-((4-oxo-3,4-dihydrophthalazin-1-yl)methyl)benzoyl)piperazin-1-yl)-11-oxoundecyl)amino)isoindoline-1,3-dione]: the half-life at 1 µM is 15.7 min under setting [2] and 15.7 min under setting [3].

On to `Cc1ncsc1-c1ccc([C@H](C)NC(=O)[C@@H]2C[C@@H](O)CN2C(=O)[C@@H](NC(=O)CCCCCCCCCCC(=O)N2CCN(C(=O)c3cc(Cc4n[nH]c(=O)c5ccccc45)ccc3F)CC2)C(C)(C)C)cc1` [Compound 22, (2S,4R)-1-((S)-2-(12-(4-(2-Fluoro-5-((4-oxo-3,4-dihydrophthalazin-1-yl)methyl)benzoyl)piperazin-1-yl)-12-oxododecanamido)-3,3-dimethylbutanoyl)-4-hydroxy-N-((S)-1-(4-(4-methylthiazol-5-yl)phenyl)ethyl)pyrrolidine-2-carboxamide], for which the half-life at 1 µM was found to be 95 min under setting [2] and 95 min under setting [3].

Regarding `Cc1ncsc1-c1ccc([C@H](C)NC(=O)[C@@H]2C[C@@H](O)CN2C(=O)[C@@H](NC(=O)CCCCCCC(=O)N2CCN(C(=O)c3cc(Cc4n[nH]c(=O)c5ccccc45)ccc3F)CC2)C(C)(C)C)cc1` [Compound 23, (2S,4R)-1-((S)-2-(8-(4-(2-Fluoro-5-((4-oxo-3,4-dihydrophthalazin-1-yl)methyl)benzoyl)piperazin-1-yl)-8-oxooctanamido)-3,3-dimethylbutanoyl)-4-hydroxy-N-((S)-1-(4-(4-methylthiazol-5-yl)phenyl)ethyl)pyrrolidine-2-carboxamide], the half-life at 1 µM was found to be 91.2 min under setting [2] and 91.2 min under setting [3].

These data come from article PMC8015227, “Understanding the Metabolism of Proteolysis Targeting Chimeras (PROTACs): The Next Step toward Pharmaceutical Applications” (Journal of Medicinal Chemistry, 2020).
